Key:
Pfeiffer cells = experiment: Cell proliferation test (Cell counting kit-8, 6 days); type: cell-based; conditions: Pfeiffer (CRL-2632) cells, culture for 6 days, viable cells by Cell counting kit-8
Protocol: The used cell lines Pfeiffer (CRL-2632), suDHL-6 (CRL-2959) and suDHL-10 (CRL-2963) were purchased from American Type Culture Collection (ATCC). All cell lines were cultured in RPMI-1640 medium (Gibco) containing 10% fetal bovine serum (Gibco). The cultured cells were collected by centrifugation and the cell density was measured on a CounterStar counter. Appropriate number of cells were then seeded in a 96-well culture plate and incubated overnight. Compounds to be tested were diluted by 8 gradient points in a ratio of 1:3 and added into the corresponding wells. After continuing to culture for 6 days, the number of viable cells was measured with Cell counting kit-8, and the absorbance value was read on Tecan infinite pro. The IC50 was calculated by fitting a four-parameter model in the XLfit software.

EZH2 Y641F = EZH2 Y641F (Homo sapiens (Human), UniProt Q15910, Y641F); experiment: In vitro methyltransferase activity test (LANCE Ultra); type: biochemical; conditions: Recombinant PRC2 (EZH2-Y641F), 2.5 μM SAM/250 nM H3(1-50)K27me1, 3 hours, room temperature
EZH2 Y641F, sequence (Q15910 whole entry Y641F): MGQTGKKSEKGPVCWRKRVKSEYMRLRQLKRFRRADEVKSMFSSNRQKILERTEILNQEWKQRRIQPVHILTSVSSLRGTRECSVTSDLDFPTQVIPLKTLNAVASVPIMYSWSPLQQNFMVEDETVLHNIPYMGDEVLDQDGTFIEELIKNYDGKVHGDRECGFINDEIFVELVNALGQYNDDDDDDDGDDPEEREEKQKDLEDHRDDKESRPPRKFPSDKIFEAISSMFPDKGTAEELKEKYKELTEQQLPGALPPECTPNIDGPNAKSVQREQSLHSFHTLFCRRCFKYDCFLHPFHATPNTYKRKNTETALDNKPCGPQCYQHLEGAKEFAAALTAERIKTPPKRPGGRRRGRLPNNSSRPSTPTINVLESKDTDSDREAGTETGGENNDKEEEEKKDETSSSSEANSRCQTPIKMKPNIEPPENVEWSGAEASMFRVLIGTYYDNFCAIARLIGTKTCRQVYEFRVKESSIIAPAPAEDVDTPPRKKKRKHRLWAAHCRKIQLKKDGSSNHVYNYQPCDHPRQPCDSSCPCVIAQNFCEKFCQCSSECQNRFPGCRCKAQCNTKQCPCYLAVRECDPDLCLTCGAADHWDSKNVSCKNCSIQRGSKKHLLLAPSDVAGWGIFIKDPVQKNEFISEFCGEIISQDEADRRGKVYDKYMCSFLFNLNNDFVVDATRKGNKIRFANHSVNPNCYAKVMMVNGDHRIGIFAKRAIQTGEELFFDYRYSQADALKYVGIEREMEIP
EZH2 Y641F, sequence (O75530 whole entry partner): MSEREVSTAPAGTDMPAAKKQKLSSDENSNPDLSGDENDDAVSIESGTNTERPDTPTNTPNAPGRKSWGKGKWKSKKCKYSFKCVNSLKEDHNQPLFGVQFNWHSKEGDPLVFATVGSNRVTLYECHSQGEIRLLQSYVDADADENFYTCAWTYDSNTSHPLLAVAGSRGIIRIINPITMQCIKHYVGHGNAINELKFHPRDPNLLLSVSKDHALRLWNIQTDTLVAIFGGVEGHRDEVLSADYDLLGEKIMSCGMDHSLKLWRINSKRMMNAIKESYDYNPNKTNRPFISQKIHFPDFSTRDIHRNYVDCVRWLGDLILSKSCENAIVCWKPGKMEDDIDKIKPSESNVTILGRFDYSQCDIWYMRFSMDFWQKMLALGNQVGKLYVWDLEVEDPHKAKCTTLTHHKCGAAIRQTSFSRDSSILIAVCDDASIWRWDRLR
EZH2 Y641F, sequence (Q15022 whole entry partner): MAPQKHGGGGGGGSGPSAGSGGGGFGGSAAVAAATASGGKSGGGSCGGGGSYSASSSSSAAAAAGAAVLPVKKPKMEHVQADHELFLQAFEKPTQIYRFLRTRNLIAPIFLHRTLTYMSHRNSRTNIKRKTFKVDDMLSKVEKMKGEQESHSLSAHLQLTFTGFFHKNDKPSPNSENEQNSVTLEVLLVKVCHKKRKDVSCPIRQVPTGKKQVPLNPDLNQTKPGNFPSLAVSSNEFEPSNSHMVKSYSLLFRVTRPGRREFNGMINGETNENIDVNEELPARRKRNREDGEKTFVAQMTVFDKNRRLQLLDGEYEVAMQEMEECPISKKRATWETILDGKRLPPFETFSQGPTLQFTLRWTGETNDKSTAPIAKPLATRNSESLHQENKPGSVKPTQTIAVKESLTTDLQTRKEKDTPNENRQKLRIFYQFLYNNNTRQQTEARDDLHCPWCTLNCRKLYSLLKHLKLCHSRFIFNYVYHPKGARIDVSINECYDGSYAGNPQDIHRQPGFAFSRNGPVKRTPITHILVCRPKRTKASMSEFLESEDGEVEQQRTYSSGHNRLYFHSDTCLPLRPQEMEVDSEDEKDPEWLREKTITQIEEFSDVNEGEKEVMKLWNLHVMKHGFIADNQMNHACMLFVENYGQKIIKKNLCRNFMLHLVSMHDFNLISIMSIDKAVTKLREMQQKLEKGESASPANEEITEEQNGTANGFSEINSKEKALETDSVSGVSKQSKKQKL
EZH2 Y641F, sequence (Q09028 whole entry partner): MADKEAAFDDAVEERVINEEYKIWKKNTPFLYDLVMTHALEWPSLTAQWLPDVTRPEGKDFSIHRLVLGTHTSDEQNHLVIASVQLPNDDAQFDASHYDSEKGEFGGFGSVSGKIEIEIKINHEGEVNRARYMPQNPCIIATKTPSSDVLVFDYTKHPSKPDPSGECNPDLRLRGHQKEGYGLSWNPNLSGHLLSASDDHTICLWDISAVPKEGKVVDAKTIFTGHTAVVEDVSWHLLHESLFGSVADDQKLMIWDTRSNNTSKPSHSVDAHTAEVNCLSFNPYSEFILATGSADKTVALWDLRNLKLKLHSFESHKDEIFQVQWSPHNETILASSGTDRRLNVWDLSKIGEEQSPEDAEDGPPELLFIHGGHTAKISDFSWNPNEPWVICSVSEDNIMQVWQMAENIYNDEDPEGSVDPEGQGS
EZH2 Y641F, sequence (Q6ZN18 whole entry partner): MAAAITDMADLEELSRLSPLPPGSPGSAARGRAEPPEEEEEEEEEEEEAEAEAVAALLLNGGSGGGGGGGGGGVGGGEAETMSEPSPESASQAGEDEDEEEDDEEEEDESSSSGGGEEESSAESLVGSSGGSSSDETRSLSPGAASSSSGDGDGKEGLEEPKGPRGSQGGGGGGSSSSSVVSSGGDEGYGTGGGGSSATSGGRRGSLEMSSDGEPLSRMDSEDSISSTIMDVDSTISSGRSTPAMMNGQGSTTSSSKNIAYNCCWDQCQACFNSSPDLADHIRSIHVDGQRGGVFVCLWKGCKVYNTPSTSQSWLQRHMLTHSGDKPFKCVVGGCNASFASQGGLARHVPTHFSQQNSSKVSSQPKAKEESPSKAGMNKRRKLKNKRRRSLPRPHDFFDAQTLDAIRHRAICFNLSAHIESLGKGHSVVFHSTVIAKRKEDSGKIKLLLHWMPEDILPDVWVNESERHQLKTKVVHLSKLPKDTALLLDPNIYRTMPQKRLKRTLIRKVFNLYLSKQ
Protocol: The detection system uses LANCEUltra system (Perkinelmer company). […] And then a buffer [20 mM Tris pH8.5, 2 mM MgCl2, 0.01% Tween-20, 1 mM TCEP] containing 2.5 μM SAM/250 nM H3 (1-50)K27me1 premixtures was added, thus the enzyme reaction was started at room temperature. After reacting for 3 hours, a test solution premixed with PLL, detection antibody and Ulight was added, and reacted for 1h at room temperature, then the fluorescence value was read on a Tecan infinite pro. IC50 was calculated by fitting a four-factor model in the XLfit software.

IC50 (EZH2 Y641F) [nM] | SMILES | IC50 (Pfeiffer cells) [nM] | IC50 (Pfeiffer cells; Homo sapiens, 144 h) [nM]
25 | C=CCC1(S(=O)(=O)n2cc(C)c3c(C(=O)NCc4c(C)cc(C)[nH]c4=O)cc(-c4ccc(CN(C)C)cc4F)cc32)CC1 [Compound G-15] | 219 | 
35 | C=CCC1(S(=O)(=O)n2cc(C)c3c(C(=O)NCc4c(C)cc(C)[nH]c4=O)cc(-c4ccc(N)nc4)cc32)CC1 [Compound G-9] | 450 | 
13 | C=CCC1(S(=O)(=O)n2cc(C)c3c(C(=O)NCc4c(C)cc(C)[nH]c4=O)cc(-c4cnc(N5CCN(C)CC5)nc4)cc32)CC1 [Compound G-13] | 75 | 
28 | C=CCC1(S(=O)(=O)n2cc(C)c3c(C(=O)NCc4c(C)cc(C)[nH]c4=O)cc(-c4ccc(CCN5CCOCC5)nc4)cc32)CC1 [Compound G-3] | 300 | 
5 | C=CCC1(S(=O)(=O)n2cc(OC)c3c(C(=O)NCc4c(C)cc(C)[nH]c4=O)cc(-c4ccc(N5CCN(C)CC5)nc4)cc32)CC1 [Compound G-14] | 27 | 
1420 | C=CCC1(S(=O)(=O)n2nc(C(F)F)c3c(C(=O)NCc4c(C)cc(C)[nH]c4=O)cc(-c4ccc(N5CCN(C)CC5)nc4)cc32)CC1 [Compound G-78] | 2520 | 
40 | C=CCC1(S(=O)(=O)n2cc(C)c3c(C(=O)NCc4c(C)cc(C)[nH]c4=O)cc(-c4ccc(N(C)C)nc4)cc32)CC1 [Compound G-8] | 327 | 
17 | C=CCC1(S(=O)(=O)n2cc(C)c3c(C(=O)NCc4c(C)cc(C)[nH]c4=O)cc(-c4cnc(N5CCNCC5)nc4)cc32)CC1 [Compound G-65] | 171 | 
196 | C#CCCS(=O)(=O)n1cc(C)c2c(C(=O)NCc3c(OC)cc(C)[nH]c3=O)cc(-c3ccc(N4CCN(C)CC4)nc3)cc21 [Compound G-81] | 3800 | 
26 | C=CCC1(S(=O)(=O)n2cc(C)c3c(C(=O)NCc4c(OC)cc(C)[nH]c4=O)cc(N4CCN(C)CC4)cc32)CC1 [Compound G-69] |  | 
28 | C=CCC1(S(=O)(=O)n2cc(C)c3c(C(=O)NCc4c(C)cc(C)[nH]c4=O)cc(-c4ccc(N5CCN(C(C)C)CC5)nc4)cc32)CC1 [Compound G-48, 1-(1-allylcyclopropylsulfonyl)-N-((4,6-dimethyl-2-oxo-1,2-dihydropyridin-3-yl)methyl)-6-(6-(4-isopropylpiperazin-1-yl)pyridin-3-yl)-3-methyl-1H-indole-4-carboxamide] |  | 211
32 | C=CCC1(S(=O)(=O)n2cc(C)c3c(C(=O)NCc4c(C)cc(C)[nH]c4=O)cc(-c4cnc(N5CC(F)C5)nc4)cc32)CC1 [Compound G-24] | 60 | 
19 | C=CCC1(S(=O)(=O)n2cc(C)c3c(C(=O)NCc4c(C)cc(C)[nH]c4=O)cc(-c4ccc(CN(C)C)cc4)cc32)CC1 [Compound G-6] | 352 | 
8 | C=CCC1(S(=O)(=O)n2cc(C)c3c(C(=O)NCc4c(OC)cc(C)[nH]c4=O)cc(-c4ccc(CN(C)C)cc4)cc32)CC1 [Compound G-32] | 79 | 
460 | C=CCC1(S(=O)(=O)N2CCc3c(C(=O)NCc4c(C)cc(C)[nH]c4=O)cc(-c4ccc(N5CCN(C)CC5)nc4)cc32)CC1 [Compound G-76] | 2590 | 
7 | C=CCC1(S(=O)(=O)n2cc(C)c3c(C(=O)NCc4c(OC)cc(C)[nH]c4=O)cc(-c4cnc(N5CCN(C(C)C)CC5)nc4)cc32)CC1 [Compound G-67] |  | 22
41 | C=CCC1(S(=O)(=O)n2cc(C)c3c(C(=O)NCc4c(C)cc(C)[nH]c4=O)cc(-c4ccc(C#N)nc4)cc32)CC1 [Compound G-10] |  | 
17 | C=CCC1(S(=O)(=O)n2cc(C)c3c(C(=O)NCc4c(C)cc(C)[nH]c4=O)cc(-c4ccc(OCCN(C)C)cc4)cc32)CC1 [Compound G-5] | 429 | 
9 | C=CCC1(S(=O)(=O)n2cc(C)c3c(C(=O)NCc4c(OC)cc(C)[nH]c4=O)cc(-c4cnc(N5CC(F)C5)nc4)cc32)CC1 [Compound G-30] | 97 | 
33 | C=CCC1(S(=O)(=O)n2cc(C)c3c(C(=O)NCc4c(C)cc(C)[nH]c4=O)cc(-c4cccnc4)cc32)CC1 [Compound G-7] | 380 | 
32 | C=CCC1(S(=O)(=O)n2cc(C)c3c(C(=O)NCc4c(C)cc(C)[nH]c4=O)cc(-c4ccc(OCCCN(C)C)cc4)cc32)CC1 [Compound G-11] |  | 
37 | C=CCC1(S(=O)(=O)n2cc(C)c3c(C(=O)NCc4c(C)cc(C)[nH]c4=O)cc(-c4ccc(F)c(CN(C)C)c4)cc32)CC1 [Compound G-21] |  | 
34 | C=CCC1(S(=O)(=O)n2cc(C)c3c(C(=O)NCc4c(OC(F)F)cc(C)[nH]c4=O)cc(-c4ccc(N5CCN(C)CC5)nc4)cc32)CC1 [Compound G-68] | 152 | 
58 | C=CCC1(S(=O)(=O)n2cc(C)c3c(C(=O)NCc4c(C)cc(C)[nH]c4=O)cc(-c4ccc(N5CCOCC5)nc4)cc32)CC1 [Compound G-12] | 485 | 
42 | C=CCC1(S(=O)(=O)n2cc(C)c3c(C(=O)NCc4c(C)cc(C)[nH]c4=O)cc(-c4ccc(CN(C)C)cc4F)cc32)CC1 [Compound G-18] | 368 | 
16 | C=CCC1(S(=O)(=O)n2cc(C)c3c(C(=O)NCc4c(OC)cc(C)[nH]c4=O)cc(-c4ccc(N)nc4)cc32)CC1 [Compound G-36] | 85 | 
22 | C=CCC1(S(=O)(=O)n2cc(C)c3c(C(=O)NCc4c(C)cc(C)[nH]c4=O)cc(-c4ccc(CN(C)C)cc4)cc32)CC1 [Compound G-4] |  | 
23 | C=CCC1(S(=O)(=O)n2cc(C)c3c(C(=O)NCc4c(C)cc(C)[nH]c4=O)cc(-c4ccc(CN(C)C)c(F)c4)cc32)CC1 [Compound G-16] | 335 | 

SMILES | IC50 (EZH2 Y641F) [nM] | IC50 (Pfeiffer cells) [nM] | IC50 (Pfeiffer cells; Homo sapiens, 144 h) [nM]
C=CCC1(S(=O)(=O)n2nc(C)c3c(C(=O)NCc4c(C)cc(C)[nH]c4=O)cc(-c4ccc(N5CCN(C)CC5)nc4)cc32)CC1 [Compound G-79] | 585 | 2820 | 
C=CCC1(S(=O)(=O)N2CC(C)c3c(C(=O)NCc4c(C)cc(C)[nH]c4=O)cc(-c4ccc(CN(C)C)cc4)cc32)CC1 (centres unmarked) [Compound G-75] | 280 | 1840 | 
Cc1cc(C)c(CNC(=O)c2cc(-c3ccc(N4CCN(C)CC4)nc3)cc3c2CCN3S(=O)(=O)C(C)C)c(=O)[nH]1 [Compound G-47, N-((4,6-dimethyl-2-oxo-1,2-dihydropyridin-3-yl)methyl)-1-(isopropylsulfonyl)-6-(6-(4-methylpiperazin-1-yl)pyridin-3-yl)dihydroindole-4-carboxamide] | 160 | 2040 | 
C=CCC1(S(=O)(=O)N2CC(C)c3c(C(=O)NCc4c(C)cc(C)[nH]c4=O)cc(-c4ccc(N5CCN(C)CC5)nc4)cc32)CC1 (centres unmarked) [Compound G-77] | 147 | 1530 | 

— patent US10793549B2, “Sulfuryl-substituted benzoheterocyclic derivative, preparation method and medical use thereof” (SHANGHAI HAIYAN PHARMACEUTICAL TECHNOLOGY CO., LTD., priority 2016, dated 2020)
